Source: patent US12358999B2, “Protein recognizing drug moiety of antibody-drug conjugate” (DAIICHI SANKYO COMPANY, LIMITED, priority 2018, dated 2025)

Columns and labels:
[1] = test system: mouse antibody 1A3; assay: Specificity of mouse antibody 1A3: immunostaining after mixing with compound (Example 5 ii); assay type: binding; settings: Example 5, written in present tense; blending ratio 0.1:0.04:0.03
Experimental: To a highly immunodeficient mouse (NOG mouse), a human-derived tumor is subcutaneously transplanted. After the antibody-drug conjugate according to the present invention is administered, the tumor tissue is taken to prepare paraffin-embedded specimens. Then, stainability of a mouse antibody 1A3 is examined. The tumor tissue is taken from a NOG mouse to which the antibody-drug conjugate according to the present invention is not administered and used as a negative control. Deparaffinization and antigen activation are carried out using Autostainer Link pretreatment system (PT Link, manufactured by DAKO) and an antigen retrieval solution (Target Retrieval Solution Low pH, manufactured by DAKO). The following staining operation is carried out using an automatic staining device (Dako Autostainer Link 48: Manufactured by DAKO). After washing with EnVision FLEX WASH BUFFER (manufactured by DAKO), Peroxidase Block 3% H2O2 (manufactured by DAKO) is add; incubation is carried out; and washing is carried out with EnVision FLEX WASH BUFFER. Protein Block serum free (manufactured by DAKO) is added; incubation s carried out; and liquid is removed by air blow. Mouse antibody 1A3 is diluted with REAL Antibody Diluent (manufactured by DAKO) and reacted. […]

[2] = test system: mouse antibody 1A3; assay: Specificity of mouse antibody 1A3: immunostaining after mixing with compound (Example 9 ii); assay type: binding; settings: CDH6-ADC (I) treated NOG mouse tumor; blending ratio 1A3: compound (2): SN-38 0.1:0.04:0.03
Experimental: To a highly immunodeficient mouse (NOG mouse), a human tumor taken from a patient with clear cell renal cell carcinoma was subcutaneously transplanted. After CDH6-ADC (I) was administered, the tumor tissue was taken to prepare paraffin-embedded specimens. Then, stainability of mouse antibody 1A3 was examined. The tumor tissue was taken from an NOG mouse to which CDH6-ADC (I) was not administered and used as a negative control. Deparaffinization and antigen activation were carried out using Autostainer Link pretreatment system (PT Link, manufactured by DAKO) and an antigen retrieval solution (Target Retrieval Solution Low pH, manufactured by DAKO) at 97° C. for 40 minutes. The following staining operation was carried out using an automatic staining device (Dako Autostainer Link 48: manufactured by DAKO) at room temperature. After washing once with EnVision FLEX WASH BUFFER (manufactured by DAKO), Peroxidase Block 3% H2O2 (manufactured by DAKO) was added; incubation was carried out for 5 minutes; and washing was carried out once with EnVision FLEX WASH BUFFER. Protein Block serum free (manufactured by DAKO) was added; incubation was carried out for 30 minutes; and liquid was removed by air blow. Mouse antibody 1A3 was diluted with REAL Antibody Diluent (manufactured by DAKO) to fall in the range of 0.03 μg/mL to 0.3 μg/mL and reaction was made for 60 minutes. […]

[3] = molecular target: T1, topoisomerase I (Homo sapiens, UniProt P11387); settings: cited from earlier work
T1 sequence (P11387 1-765): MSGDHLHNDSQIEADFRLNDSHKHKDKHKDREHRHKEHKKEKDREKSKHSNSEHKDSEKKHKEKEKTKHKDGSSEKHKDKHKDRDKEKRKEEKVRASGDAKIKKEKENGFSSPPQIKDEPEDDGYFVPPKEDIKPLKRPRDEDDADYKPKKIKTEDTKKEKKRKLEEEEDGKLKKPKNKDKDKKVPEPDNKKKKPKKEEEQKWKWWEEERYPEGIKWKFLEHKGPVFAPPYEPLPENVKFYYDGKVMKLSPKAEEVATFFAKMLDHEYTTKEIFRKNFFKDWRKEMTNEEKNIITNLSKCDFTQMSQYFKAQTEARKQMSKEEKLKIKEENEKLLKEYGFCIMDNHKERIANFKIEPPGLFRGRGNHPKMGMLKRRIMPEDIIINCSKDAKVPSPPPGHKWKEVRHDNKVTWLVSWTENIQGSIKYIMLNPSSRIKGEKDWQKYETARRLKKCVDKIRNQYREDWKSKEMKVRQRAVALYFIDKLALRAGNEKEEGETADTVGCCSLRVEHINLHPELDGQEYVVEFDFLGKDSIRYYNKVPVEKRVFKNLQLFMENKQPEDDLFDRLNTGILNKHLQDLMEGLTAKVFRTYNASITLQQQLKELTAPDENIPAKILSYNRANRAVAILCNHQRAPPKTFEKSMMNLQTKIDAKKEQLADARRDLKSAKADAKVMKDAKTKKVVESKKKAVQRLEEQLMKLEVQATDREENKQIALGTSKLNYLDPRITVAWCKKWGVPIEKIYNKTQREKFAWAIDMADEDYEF

[4] = test system: mouse antibody 1A3; assay: Competitive inhibition with HER2-ADC (I), chemical structure recognized by mouse antibody 1A3 (Gyrolab); assay type: binding; settings: compound 1 and 100 μg/mL dilution solutions; response at HER2-ADC (I) 250 ng/mL
Description: The chemical structure to be recognized by mouse antibody 1A3 was checked by competitive inhibition with HER2-ADC (I) using Gyrolab xP workstation (GYROS PROTEIN Technologies). As the compound for use in competitive inhibition, compound (1), compound (2), compound (7), compound (8), compound (9), compound (10), compound (11), Topotecan and Rubitecan were selected.
As the capture reagent, mouse antibody 1A3 labeled with biotin by a labeling kit (ChromaLink Biotin Protein LABELING Kit, Solulink) was used. The concentration thereof was controlled to be 700 nM with 0.1% PS20-containing PBS. The compounds for use in competitive inhibition, compound (1), compound (2), compound (7), compound (8), compound (9), compound (10), compound (11), Topotecan and Rubitecan were separately dissolved in DMSO. The solutions each was diluted with 10% or 20% DMSO in Rexxip HN (GYROS PROTEIN Technologies) to prepare 0, 1 and 100 μg/mL dilution solutions. To each of them, the 700 nM mouse antibody 1A3 solution was added in an equal amount. The mixture was stirred and allowed to react at room temperature in a dark place for one hour or more. The concentration of HER2-ADC (I) was controlled with Rexxip HN to be 0, 0.244, 0.977, 3.91, 15.6, 62.5, 250 and 1000 ng/mL. As the detection reagent, Mouse Anti-(Anti-HER2 Ab) idiotype Ab (13C1) (IBL) was labeled by DyLight650 (registered trademark) labeling kit and put in use. The concentration thereof was controlled with Rexxip F (GYROS PROTEIN Technologies) to be 10 nM. The above solution was set at Gyrolab xP workstation and measurement was carried out by use of Gyrolab Bioaffy 200 at 200-3W-002-A (PMT5). The regression analysis was carried out by use of Gyrolab Evaluator 3.4.0.24 in 4-parametric logistic model (weight: Response). The calibration curve of HER2-ADC (I) was prepared per concentration of the competitive inhibition compound. The inhibition rate (%) was calculated by comparing the response at an HER2-ADC (I) concentration of 250 ng/mL to that of the case where no compound was added (concentration 0 ng/mL).

Row | Compound | stainability of mouse antibody 1A3 after mixing with the compound [1] | staining ability of mouse antibody 1A3 after mixing with the compound [2] | topoisomerase I inhibitory activity [3] | competitive inhibition of recognition of mouse antibody 1A3 to HER2-ADC (I) (inhibition rate, FIG. 41) [4]
1 | CCc1c2c(nc3ccc(O)cc13)-c1cc3c(c(=O)n1C2)COC(=O)[C@]3(O)CC [SN-38, reference compound] | does not disappear | did not disappear |  | 
2 | CC[C@@]1(O)C(=O)OCc2c1cc1n(c2=O)Cc2c-1nc1cc(F)c(C)c3c1c2[C@@H](NC(=O)CO)CC3 [compound (2)] | disappears | disappeared | topoisomerase I inhibitory effect | strong competitive inhibition
